Test results: ChEMBL document CHEMBL4007427, “Inhibition of the Aldehyde Dehydrogenase 1/2 Family by Psoralen and Coumarin Derivatives” (J Med Chem, 2017); call rule not given here

How the values were obtained:
[1] = target: T1, Aldehyde dehydrogenase 1A1 (Homo sapiens) (UniProt P00352); test: Inhibition of full length recombinant human ALDH1A1 expressed in Escherichia coli BL21(DE3) assessed as remaining dehydrogenase activity by measuring NAD(P)H level at 10 uM preincubated for 2 mins followed by addition of propionaldehyde as substrate in presence of NAD+ by spectrophotometric method
T1 sequence (whole entry): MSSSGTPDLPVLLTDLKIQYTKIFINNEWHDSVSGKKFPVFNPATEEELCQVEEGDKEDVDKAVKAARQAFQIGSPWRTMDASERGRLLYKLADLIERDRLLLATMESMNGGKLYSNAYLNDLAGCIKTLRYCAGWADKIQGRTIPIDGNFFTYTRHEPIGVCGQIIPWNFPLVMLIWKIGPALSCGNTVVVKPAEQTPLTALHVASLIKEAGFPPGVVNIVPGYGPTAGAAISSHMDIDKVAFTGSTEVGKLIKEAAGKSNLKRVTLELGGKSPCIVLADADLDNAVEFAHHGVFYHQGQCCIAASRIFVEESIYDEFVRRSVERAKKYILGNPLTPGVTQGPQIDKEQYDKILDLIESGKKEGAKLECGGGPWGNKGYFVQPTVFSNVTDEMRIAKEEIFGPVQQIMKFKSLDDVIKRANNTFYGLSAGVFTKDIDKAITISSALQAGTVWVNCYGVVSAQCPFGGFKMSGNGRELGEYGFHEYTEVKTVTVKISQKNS

[2] = target: T2, Aldehyde dehydrogenase, mitochondrial (Homo sapiens, UniProt P05091)
T2 sequence (P05091 whole entry): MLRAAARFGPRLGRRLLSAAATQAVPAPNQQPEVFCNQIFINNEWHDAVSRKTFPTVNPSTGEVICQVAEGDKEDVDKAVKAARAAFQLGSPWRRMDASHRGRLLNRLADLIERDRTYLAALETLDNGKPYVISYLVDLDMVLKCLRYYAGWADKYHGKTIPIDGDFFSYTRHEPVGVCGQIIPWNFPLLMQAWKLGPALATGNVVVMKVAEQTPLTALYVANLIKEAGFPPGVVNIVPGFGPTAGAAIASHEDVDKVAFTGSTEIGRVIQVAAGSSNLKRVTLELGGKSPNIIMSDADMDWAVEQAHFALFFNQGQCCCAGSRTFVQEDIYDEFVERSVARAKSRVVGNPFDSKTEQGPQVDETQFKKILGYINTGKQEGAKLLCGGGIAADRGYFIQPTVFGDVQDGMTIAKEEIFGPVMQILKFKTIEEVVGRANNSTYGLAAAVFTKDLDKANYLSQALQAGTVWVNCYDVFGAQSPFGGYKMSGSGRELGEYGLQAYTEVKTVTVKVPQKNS
Description: Inhibition of full length recombinant human ALDH2 expressed in Escherichia coli assessed as reduction in dehydrogenase activity by measuring NAD(P)H level preincubated for 2 mins followed by addition of propionaldehyde as substrate in presence of NAD+ by spectrophotometric method

[3] = target: T3, Aldehyde dehydrogenase, mitochondrial (Homo sapiens) (UniProt P05091); test: Inhibition of full length recombinant human ALDH2 expressed in Escherichia coli assessed as remaining dehydrogenase activity by measuring NAD(P)H level at 10 uM preincubated for 2 mins followed by addition of propionaldehyde as substrate in presence of NAD+ by spectrophotometric method
T3 sequence (whole entry): T2 sequence (P05091 whole entry)

[4] = target: T4, Aldehyde dehydrogenase, dimeric NADP-preferring (Homo sapiens, UniProt P30838); test: Inhibition of full length recombinant human ALDH3A1 expressed in Escherichia coli BL21(DE3) assessed as reduction in dehydrogenase activity by measuring NAD(P)H level preincubated for 2 mins followed by addition of benzaldehyde as substrate in presence of NADP+ by spectrophotometric method
T4 sequence (P30838 whole entry): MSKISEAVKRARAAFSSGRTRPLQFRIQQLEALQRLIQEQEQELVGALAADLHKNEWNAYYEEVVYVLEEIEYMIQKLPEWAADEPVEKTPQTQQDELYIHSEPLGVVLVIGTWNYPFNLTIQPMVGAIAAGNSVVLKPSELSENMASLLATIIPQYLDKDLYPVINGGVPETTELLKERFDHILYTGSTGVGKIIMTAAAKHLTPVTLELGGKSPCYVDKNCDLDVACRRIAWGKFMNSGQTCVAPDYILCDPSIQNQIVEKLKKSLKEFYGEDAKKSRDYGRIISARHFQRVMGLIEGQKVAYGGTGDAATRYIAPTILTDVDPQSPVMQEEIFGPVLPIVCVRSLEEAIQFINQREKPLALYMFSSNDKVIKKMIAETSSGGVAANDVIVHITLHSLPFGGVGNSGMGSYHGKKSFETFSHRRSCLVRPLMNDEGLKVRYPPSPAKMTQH

[5] = target: T5, Aldehyde dehydrogenase X, mitochondrial (Homo sapiens, UniProt P30837)
T5 sequence (P30837 whole entry): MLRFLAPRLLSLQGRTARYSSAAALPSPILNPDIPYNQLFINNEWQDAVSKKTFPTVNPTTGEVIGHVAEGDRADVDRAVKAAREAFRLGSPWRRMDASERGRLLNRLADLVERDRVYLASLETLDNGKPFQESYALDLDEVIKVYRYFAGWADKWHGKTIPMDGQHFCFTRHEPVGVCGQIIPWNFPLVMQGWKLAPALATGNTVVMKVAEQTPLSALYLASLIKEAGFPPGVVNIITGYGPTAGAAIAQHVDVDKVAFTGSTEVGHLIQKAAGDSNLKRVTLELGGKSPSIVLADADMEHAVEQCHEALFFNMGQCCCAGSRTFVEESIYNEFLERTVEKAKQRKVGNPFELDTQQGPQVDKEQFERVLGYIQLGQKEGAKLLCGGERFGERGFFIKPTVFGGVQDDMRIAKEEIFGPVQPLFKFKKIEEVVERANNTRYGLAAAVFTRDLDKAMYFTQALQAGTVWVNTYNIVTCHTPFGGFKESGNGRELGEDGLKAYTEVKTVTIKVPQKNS
Description: Inhibition of full length recombinant human ALDH1B1 expressed in Escherichia coli TunerDE3 assessed as reduction in dehydrogenase activity by measuring NAD(P)H level preincubated for 2 mins followed by addition of propionaldehyde as substrate in presence of NAD+ by spectrophotometric method

Retinal dehydrogenase 2 = target: T6, Retinal dehydrogenase 2 (Homo sapiens, UniProt O94788)
T6 sequence (O94788 whole entry): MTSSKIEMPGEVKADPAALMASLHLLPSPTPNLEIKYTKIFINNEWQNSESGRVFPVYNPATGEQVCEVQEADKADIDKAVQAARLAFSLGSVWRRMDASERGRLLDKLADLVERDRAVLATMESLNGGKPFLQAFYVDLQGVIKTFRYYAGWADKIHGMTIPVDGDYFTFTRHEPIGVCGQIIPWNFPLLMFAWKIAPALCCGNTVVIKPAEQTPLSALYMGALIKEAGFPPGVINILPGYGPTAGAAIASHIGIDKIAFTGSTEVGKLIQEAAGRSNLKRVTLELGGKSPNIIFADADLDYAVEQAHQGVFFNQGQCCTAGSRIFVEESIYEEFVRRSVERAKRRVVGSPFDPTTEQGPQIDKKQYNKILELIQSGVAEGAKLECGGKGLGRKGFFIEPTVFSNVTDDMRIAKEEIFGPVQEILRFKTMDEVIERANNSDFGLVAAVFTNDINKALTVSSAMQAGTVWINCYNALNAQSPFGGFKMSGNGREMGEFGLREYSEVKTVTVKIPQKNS
Description: Inhibition of full length recombinant human ALDH1A2 expressed in Escherichia coli BL21(DE3) assessed as reduction in dehydrogenase activity by measuring NAD(P)H level preincubated for 2 mins followed by addition of propionaldehyde as substrate in presence of NAD+ by spectrophotometric method

Compound C/C(=N\O)c1cc2cc(Br)ccc2oc1=O has an Activity [1] of 96%, an IC50 [2] of 4.6 µM and an Activity [3] of 48.2%. The IC50 [4] was “Not Active”.
CCCc1cc(=O)oc2cc3oc(C)c(C)c3cc12 was tested, and the Activity [1] was 74.1%, the IC50 [2] was 0.36 µM and the Activity [3] was 23.8%. The IC50 [5] was 0.086 µM, the IC50 (Retinal dehydrogenase 2) was 0.069 µM and the IC50 [4] was “Not Active”.
CCCc1c(C)c2cc3c(C)c(C)oc3cc2oc1=O showed an Activity [1] of 36.3%, an IC50 [2] of 0.11 µM and an Activity [3] of 1.61%. The IC50 [5] was 0.36 µM, the IC50 (Retinal dehydrogenase 2) was 0.3 µM and the IC50 [4] was “Not Active”.
CCCc1c(C)c2cc3c(C)coc3cc2oc1=O showed an Activity [1] of 48.6%, an IC50 [2] of 0.34 µM and an Activity [3] of 6.25%. The IC50 [5] was 0.88 µM, the IC50 (Retinal dehydrogenase 2) was 0.76 µM and the IC50 [4] was “Not Active”.
Compound Cc1oc2cc3oc(=O)c(CCC(=O)N4CCCCC4)c(C)c3cc2c1C has an Activity [1] of 8.69%, an IC50 [2] of 2 µM and an Activity [3] of 3.8%. The IC50 [5] was 2.6 µM, the IC50 (Retinal dehydrogenase 2) was 1.6 µM and the IC50 [4] was “Not Active”.
COC(=O)C(C)Oc1ccc2c(C)cc(=O)oc2c1 (stereo not drawn) was tested, and the Activity [1] was 84.8%, the IC50 [2] was 1.5 µM and the Activity [3] was 5.72%. For the same compound, the IC50 [4] was “Not Active”.
Cc1oc2cc3oc(=O)c4c(c3cc2c1C)CCC4 showed an Activity [1] of 50.8%, an IC50 [2] of 0.067 µM and an Activity [3] of 8.25%. For the same compound, the IC50 [5] was 0.16 µM, the IC50 (Retinal dehydrogenase 2) was 0.13 µM and the IC50 [4] was “Not Active”.
In the case of Cc1oc2cc3oc(=O)c(C)c(C)c3cc2c1C, the Activity [1] is reported as 90.5%, the Activity [3] is reported as 19.5% and the IC50 [5] is reported as 0.31 µM. For the same compound, the IC50 (Retinal dehydrogenase 2) was 0.33 µM and the IC50 [4] was “Not Active”.
